Test [1] concerns the target T1, APOL1 G2 (Homo sapiens, UniProt O14791, DEL388-389).
T1 construct: expressed in transfected cells; host or cells: HEK293 T-REx clonal lines: HEK T-REx/GCaMP6f/APOL1 G2 K6.3 in A1, HEK293/T-REx APOL1 G2/clone #2 in A2
T1 sequence (O14791 with tags, fused parts or gaps DEL388-389): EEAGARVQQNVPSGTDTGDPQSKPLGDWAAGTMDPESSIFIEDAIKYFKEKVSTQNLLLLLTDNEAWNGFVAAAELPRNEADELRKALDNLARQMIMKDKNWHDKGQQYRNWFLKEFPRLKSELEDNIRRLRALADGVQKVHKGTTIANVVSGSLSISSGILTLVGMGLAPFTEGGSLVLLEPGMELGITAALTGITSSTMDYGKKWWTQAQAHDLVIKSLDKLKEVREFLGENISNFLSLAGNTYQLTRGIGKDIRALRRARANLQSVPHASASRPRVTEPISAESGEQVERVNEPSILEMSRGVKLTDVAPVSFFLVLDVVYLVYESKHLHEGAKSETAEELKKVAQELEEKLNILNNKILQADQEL
The test can be described thus: Rescue of HEK293 cell death caused by overexpression of APOL1 (CellTiter-Glo luminescence), HEK293/T-REx APOL1 G2/clone #2. The test is classed as cell-based. To be noted: reversal of cell death caused by overexpression of APOL1; geometric mean of at least 2 assay runs, † = single assay run (technical duplicate). How it is done: A HEK293 clonal cell line overexpressing APOL1 G2 (HEK293/T-REx APOL1 G2/clone #2) was maintained in 1×DMEM-GlutaMax (Gibco, 10569-010) media with 10% tetracycline-free FBS (Takara Bio USA, 631101), 5 μg/mL Blasticidin (Gibco, A1113903), and 100 μg/mL Zeocin (Invitrogen, R25001) in T75 flasks. In preparation for the assay, this media was aspirated and 2 mL of prewarmed TrypLE Express (Gibco, 12605-010) was added to a flask to detach cells. The flask was then incubated (humidified, 37° C. with 5% CO2) for 3-5 minutes. Afterwards, 8 mL of prewarmed cell assay media (lx DMEM-GlutaMax media with 10% tetracycline-free FBS) was added to the trypsinized cells. The suspension was gently mixed, and cells were counted using a Countess Cell Counting Chamber (Invitrogen). The suspension was diluted using cell assay media to generate a working stock solution (166,667 cells/mL). Using a MultiDrop Combi (Thermo Electron Corp), 30 μL (final cell density=5,000 cells/well) of the working stock solution was dispensed into each well of white 384-well assay ready plates (Nunc™, 164610) containing 6 ng/mL doxycycline, to induce APOL1 expression, and compound. All compounds were plated in a duplicate 8-point dilution series that consisted of 3-fold stepwise dilutions (0.5% DMSO final). Assay plates were incubated (humidified, 37° C. with 5% CO2) for 17 hours. After the incubation, the plates were equilibrated at room temperature for 1 hour. Next, 15 μl of CellTiter-Glo® reagent (Promega, G7570) was added to each well using a MultiDrop Combi. Plates were placed on an orbital shaker (500 rpm) for 5 minutes to induce cell lysis and then incubated at room temperature for 10 minutes. Luminescence was measured on an Envision plate reader. Collaborative Drug Discovery software was utilized for graphing data. Plots were generated using a four parameter logistic curve fit.
Table B2 below provides the results from this experiment. Unless otherwise specified, EC50 values are reported as the geometric mean of at least 2 assay runs on separate days. Each run represents the average of a technical replicate, where each compound was assayed twice in the same plate. A superscript t symbol indicates a value from the average of a technical replicate from a single assay run, where each compound was assayed twice in the same plate. Compounds in Table B2 are referred to by the corresponding Compound Number in Table 1, which is also referred to in the synthetic examples. When one or more of the numbered compounds are identified by stereochemistry (for example, (R)- or (S)—), the specific stereoisomer for which data is provided in Table B2 may be identified by the elution order of such compound as described in the synthetic examples. To illustrate, Compound 2 is the first-eluting enantiomer of step 4 of Example 1 and Compound 3 is the second-eluting enantiomer of step 4 of Example 1. Further, by way of illustration, Compound 27 is the first-eluting enantiomeric mixture in step 4 of Example 7 and Compound 28 is the second-eluting enantiomeric mixture in step 4 of Example 7. Then, Compound 27 is separated into Compound 29 (the first-eluting enantiomer) and Compound 30 (the second-eluting enantiomer) in Example 8, and Compound 28 is separated into Compound 31 (the first-eluting enantiomer) and Compound 32 (the second-eluting enantiomer) in Example 8. Absolute stereochemistry of such compounds may be identified by methods known in the art.
Rescue EC50 values reported in Table B2 below represent the half-maximal effective concentration for reversal of cell death caused by overexpression of APOL1.
In general terms: ATP-based viability assays read luminescence as a measure of living cells.

Test [2] deals with T1, APOL1 G2. The test can be described thus: APOL1 calcium transport inhibition assay (GCaMP6f calcium influx, FLIPR) in HEK T-REx/GCaMP6f/APOL1 G2 K6.3 cells. The test is classed as cell-based. To be noted: inhibition of APOL1-mediated calcium influx; geometric mean of at least 2 assay runs, † = single assay run (technical duplicate). How it is done: A HEK293 clonal cell line was generated to stably express GCaMP6f, a genetically encoded calcium indicator, and inducibly express APOL1 G2 (HEK T-REx/GCaMP6f/APOL1 G2 K6.3). Cells were maintained in the following standard complete medium: DMEM with 4.5 g/L glucose and sodium pyruvate (BioWhittaker, Lonza, BE12-614F), supplemented with 10% FBS Performance Plus (Gibco, 16000044), 1% penicillin-streptomycin (BioWhittaker, DE17-602E), 2 mM ultraglutamine-1 (BioWhittaker cat. BE 17-605/U1), 50 μg/mL Zeocin (InvivoGen, ant-zn), 2.5 μg/mL Blasticidin (InvivoGen, ant-bl-5), and 25 μg/mL Hygromycin (InvivoGen, ant-hg). Standard propagation conditions consisted of plating 9×10^6, 4×10^6, 2×10^6 cells in a T225 flasks to be processed after 2, 3, or 4 days, respectively.
A source plate was generated containing 20 serially diluted compounds in DMSO (duplicate 8-point dose response). Next, 0.8 μL of compounds were transferred from the source plate to a destination plate prefilled with 79.2 μL of Ca^2+ free Tyrode's buffer (130 mM NaCl, 5 mM KCl, 1 mM MgCl2, 5 mM NaHCO3, 20 mM HEPES at pH 7.4). The destination plate was placed on a plate shaker (5 seconds at 2000 rpm) to mix. […] All transfer and mixing steps were conducted with an CyBi®-Well dispenser.
Cells were split by gently washing with DPBS (Euroclone, ECB4004L), followed by a 5-minute incubation (humidified, 37° C. with 5% CO2) with trypsin-EDTA solution (Euroclone, ECB3052D). Detached cells were diluted with standard complete medium without selective agents, counted, and plated in a 384 MTP microplate (GR4332CPL, Twin Helix) (10,000 cells/well in 25 μl/well) using a MATRIX WellMate dispenser. Plates were placed into a humidified incubator (37° C. with 5% CO2) overnight. The following day, 20 μL of doxycycline (Sigma, D9891) at 20 ng/mL in standard complete medium was added to cells with a CyBi @Drop dispenser to induce APOL1 G2 expression. After a 6-hour incubation (humidified, 37° C. with 5% CO2), cells were washed 3 times with Ca^2+ free Tyrode's Buffer (130 mM NaCl, 5 mM KCl, 1 mM MgCl2, 5 mM NaHCO3, 20 mM HEPES at pH 7.4) using a BIOTEK Microplate washer, such that 10 μL of buffer remained in each well after the final wash. Assay plates were then stored at room temperature for 10 minutes. Next, 10 μL of diluted compounds were transferred to the assay plate from the 2× compound plate using a CyBi®-Well dispenser. Compound incubation was then carried out at room temperature for 10 minutes. The assay plate was transferred to the […] and 20 μL of 10 mM Ca^2+ (final concentration=5 mM) Tyrode's buffer was injected.
Table B1 below summarizes the data from this experiment. Unless otherwise specified, AC50 and values are reported as the geometric mean of at least 2 assay runs on separate days. Each run represents the average of a technical replicate, where each compound was assayed twice in the same plate. A superscript † symbol indicates a value from the average of a technical replicate from a single assay run, where each compound was assayed twice in the same plate.
The AC50 values in Table B1 below reflect the compound's ability to prevent calcium influx by inhibiting APOL1. […] Compounds in Table B1 are referred to by the corresponding Compound Number in Table 1, which is also referred to in the synthetic examples. When one or more of the numbered compounds are identified by stereochemistry (for example, (R)- or (S)—), the specific stereoisomer for which data is provided in Table B1 may be identified by the elution order of such compound as described in the synthetic examples. To illustrate, Compound 2 is the first-eluting enantiomer of step 4 of Example 1 and Compound 3 is the second-eluting enantiomer of step 4 of Example 1. Further, by way of illustration, Compound 27 is the first-eluting enantiomeric mixture in step 4 of Example 7 and Compound 28 is the second-eluting enantiomeric mixture in step 4 of Example 7. […]

For orientation: EC50 means the concentration needed to bring the measured effect to its halfway point. For orientation: AC50 means the midpoint of the concentration-response curve, whichever way the signal moves. As to `CS(=O)(=O)c1ccc(OCC2(O)CCCN(CCc3cccc(Cl)c3)C2)cc1` (single isomer, unassigned) [Compound 6, (S) or (R) -1-(3-chlorophenethyl)-3-((4-(methylsulfonyl)phenoxy)methyl) piperidin-3-ol], in test [1], the EC50 amounted to 0.495 µM. For the same molecule, in test [2], the AC50 was 0.942 µM.

Regarding `CN(c1ccc(OCC2CCCN(CCc3cccc(Cl)c3)C2)cc1)S(C)(=O)=O` (single isomer, unassigned) [Compound 8, (S) or (R)—N-(4-((1-(3-chlorophenethyl)piperidin-3-yl)methoxy)phenyl)-N-methylmethanesulfonamide], the half-maximal effective concentration (EC50) in test [1] was determined as 0.132 µM. Further, the AC50 in test [2] was determined as 0.266 µM.

Consider `CN(c1ccc(OCC2CCCN(CCc3cccc(Cl)c3)C2)cc1)S(C)(=O)=O` (single isomer, unassigned) [Compound 9, (R) or (S)—N-(4-((1-(3-chlorophenethyl)piperidin-3-yl)methoxy)phenyl)-N-methylmethanesulfonamide], for which the concentration giving a half-maximal response (EC50) in test [1] was 0.263 µM. Moreover, the AC50 in test [2] worked out at 0.151 µM.

`CN(c1ccc(OCC2CN(CCc3cccc(Cl)c3)CCCO2)cc1)S(C)(=O)=O` (single isomer, unassigned) [Compound 11, (R) or (S)-N-(4-((4-(3-chlorophenethyl)-1,4-oxazepan-2-yl)methoxy)phenyl)-N-methylmethane-sulfonamide]: the EC50 in test [1] is 1 µM. The concentration at half-maximal activity (AC50) in test [2] turned out to be 1.19 µM.

Consider `CN(c1ccc(OCC2CN(CCc3cccc(Cl)c3)CCCO2)cc1)S(C)(=O)=O` (single isomer, unassigned) [Compound 12, (S) or (R)-N-(4-((4-(3-chlorophenethyl)-1,4-oxazepan-2-yl)methoxy)phenyl)-N-methylmethane-sulfonamide], for which, in test [1], the half-maximal effective concentration (EC50) came out at 3 µM. In test [2], the concentration at half-maximal activity (AC50) was determined as 2.39 µM.

In the case of `CS(=O)(=O)c1ccc(OC[C@H]2CCCN(CC(O)c3cccc(Cl)c3)C2)cc1` (single isomer, unassigned) [Compound 18, (R) or (S)-1-(3-chlorophenyl)-2-((S)-3-((4-(methylsulfonyl)phenoxy)methyl)piperidin-1-yl)ethan-1-ol], in test [1], the concentration for a half-maximal effect (EC50) worked out at 6.32 µM. In test [2], the concentration at half-maximal activity (AC50) turned out to be 5.73 µM.

Consider `CS(=O)(=O)c1ccc(OC[C@H]2CCCN(CC(O)c3cccc(Cl)c3)C2)cc1` (single isomer, unassigned) [Compound 19, (S) or (R)-1-(3-chlorophenyl)-2-((S)-3-((4-(methylsulfonyl)phenoxy)methyl)piperidin-1-yl)ethan-1-ol], for which the EC50 in test [1] is 0.374 µM. Besides, the half-maximal activity concentration (AC50) in test [2] worked out at 0.48 µM.

Consider `CS(=O)(=O)c1ccc(OC[C@@H]2CCCN(CC(O)c3cccc(Cl)c3)C2)cc1` (single isomer, unassigned) [Compound 21, (R) or (S)-1-(3-chlorophenyl)-2-((R)-3-((4-(methylsulfonyl)phenoxy)methyl)piperidin-1-yl)ethanol], for which the EC50 in test [1] stood at 1.02 µM. In addition, the AC50 in test [2] turned out to be 0.623 µM.

As to `CS(=O)(=O)c1ccc(OC[C@@H]2CCCN(CC(O)c3cccc(Cl)c3)C2)cc1` (single isomer, unassigned) [Compound 22, (S) or (R)-1-(3-chlorophenyl)-2-((R)-3-((4-(methylsulfonyl)phenoxy)methyl)piperidin-1-yl)ethanol], the concentration for a half-maximal effect (EC50) in test [1] amounted to 6.59 µM. In addition, the concentration at half-maximal activity (AC50) in test [2] came to 6.41 µM.

For `COC(CN1CCC[C@H](COc2ccc(S(C)(=O)=O)cc2)C1)c1cccc(Cl)c1` (single isomer, unassigned) [Compound 23, (S)-1-((R)-2-(3-chlorophenyl)-2-methoxyethyl)-3-((4-(methylsulfonyl)phenoxy)methyl)piperidine or (S)-1-((S)-2-(3-chlorophenyl)-2-methoxyethyl)-3-((4-(methylsulfonyl)phenoxy)methyl)piperidine], the EC50 in test [1] is 0.677 µM. In test [2], the concentration at half-maximal activity (AC50) amounted to 0.64 µM.
